Measured values published in US20130005568A1, “SAFENED HERBICIDAL MIXTURES” (E.I. DU PONT DE NEMOURS AND COMPANY, priority 2011, published 2013).

What was measured:
[1] = system: Pioneer 39K40 hybrid maize; assay: Test C: visual plant response rating, postemergence acetohydroxy acid synthase-inhibiting herbicides alone and with Compound 1; assay type: in vivo, Zea mays L. spp. indentata Sturt.; conditions: greenhouse, two weeks, 0-100 scale
Method: (§1) For all of the following biological tests, plant response ratings were based on a 0-100 scale where zero is growth equivalent to that of untreated plants (no plant response) and 100 represents no additional growth occurring after herbicide treatment.
Herbicide mixtures were dissolved/dispersed in a non-phytotoxic liquid carrier and were sprayed postemergence to Pioneer 39K40 hybrid maize (Zea mays L. spp. indentata Sturt.) in the third collar growth stage (extended leaf height was 40-60 cm). Treated plants were grown under greenhouse conditions for two weeks before visual evaluations of plant responses were recorded.

pigweed = assay: Test E: postemergence plant response rating; assay type: in vivo, Amaranthus retroflexus L.; conditions: pigweed, postemergence, greenhouse, two weeks, 0-100 scale
From the text: as §1
(§2) Herbicide mixtures were formulated, dissolved/dispersed in water containing 0.25% non-ionic surfactant, sprayed postemergence to the crops: winter wheat (Triticum aestivum L.), spring wheat (Triticum aestivum L.), winter barley (Hordeum vulgare L.) and spring barley (Hordeum vulgare L.), and the weeds: blackgrass (Alopecurus myosuroides Huds.), lambsquarters (Chenopodium album L.) and pigweed (Amaranthus retroflexus L.). Treated plants were grown under greenhouse conditions for two weeks before visual evaluations of plant responses were recorded.

winter wheat [2] = assay: Test F: preemergence plant response rating; assay type: in vivo, Triticum aestivum L.; conditions: winter wheat, preemergence, greenhouse, three weeks, 0-100 scale
From the text: as §1
(§3) Herbicide mixtures were formulated, dissolved/dispersed in water, and sprayed preemergence to the crops: winter wheat (Triticum aestivum L.) and winter barley (Hordeum vulgare L.), and the weed: blackgrass (Alopecurus myosuroides Huds). Treated plants were grown under greenhouse conditions for three weeks before visual evaluations of plant responses were recorded.

winter wheat [3] = assay: Test E: postemergence plant response rating; assay type: in vivo, Triticum aestivum L.; conditions: winter wheat, postemergence, greenhouse, two weeks, 0-100 scale
From the text: as §1, §2

spring wheat = assay: Test E: postemergence plant response rating; assay type: in vivo, Triticum aestivum L.; conditions: spring wheat, postemergence, greenhouse, two weeks, 0-100 scale
From the text: as §1, §2

lambsquarters = assay: Test E: postemergence plant response rating; assay type: in vivo, Chenopodium album L.; conditions: lambsquarters, postemergence, greenhouse, two weeks, 0-100 scale
From the text: as §1, §2

winter barley [4] = assay: Test F: preemergence plant response rating; assay type: in vivo, Hordeum vulgare L.; conditions: winter barley, preemergence, greenhouse, three weeks, 0-100 scale
From the text: as §1, §3

blackgrass [5] = assay: Test E: postemergence plant response rating; assay type: in vivo, Alopecurus myosuroides Huds.; conditions: blackgrass, postemergence, greenhouse, two weeks, 0-100 scale
From the text: as §1, §2

blackgrass [6] = assay: Test F: preemergence plant response rating; assay type: in vivo, Alopecurus myosuroides Huds; conditions: blackgrass, preemergence, greenhouse, three weeks, 0-100 scale
From the text: as §1, §3

spring barley = assay: Test E: postemergence plant response rating; assay type: in vivo, Hordeum vulgare L.; conditions: spring barley, postemergence, greenhouse, two weeks, 0-100 scale
From the text: as §1, §2

winter barley [7] = assay: Test E: postemergence plant response rating; assay type: in vivo, Hordeum vulgare L.; conditions: winter barley, postemergence, greenhouse, two weeks, 0-100 scale
From the text: as §1, §2

[8] = herbicide 10 g ai/ha + Compound 1 125 g ai/ha
[9] = herbicide 20 g ai/ha + Compound 1 125 g ai/ha
[10] = herbicide 32 g ai/ha + Compound 1 125 g ai/ha
[11] = herbicide 64 g ai/ha + Compound 1 125 g ai/ha
[12] = herbicide 17.5 g ai/ha + Compound 1 125 g ai/ha
[13] = herbicide 35 g ai/ha + Compound 1 125 g ai/ha

Compound: CCOC(=O)c1ccccc1S(=O)(=O)NC(=O)Nc1nc(Cl)cc(OC)n1 [Chlorimuron-ethyl, chlorimuron-ethyl]
- Observed Response, Herbicide mixture with Compound 1 ([1]; herbicide 8 g ai/ha + Compound 1 125 g ai/ha): 53
- Observed Response, Herbicide alone ([1]; herbicide 8 g ai/ha): 96

Compound: COC(=O)c1ccc(C(F)(F)F)nc1S(=O)(=O)NC(=O)Nc1nc(OC)cc(OC)n1 [Flupyrsulfuron-methyl-sodium, flupyrsulfuron-methyl-sodium]
- Observed Response, Herbicide mixture with Compound 1 (pigweed; [8]): 96
- Observed Response, Herbicide alone (pigweed; herbicide 10 g ai/ha): 100
- Observed Response, Herbicide mixture with Compound 1 (pigweed; [9]): 97
- Observed Response, Herbicide alone (pigweed; herbicide 20 g ai/ha): 99
- Observed Response, Herbicide mixture with Compound 1 (winter wheat [2]; [10]): 10
- Observed Response, Herbicide alone (winter wheat [2]; herbicide 32 g ai/ha): 30
- Observed Response, Herbicide mixture with Compound 1 (winter wheat [2]; [11]): 33
- Observed Response, Herbicide alone (winter wheat [2]; herbicide 64 g ai/ha): 40
- Observed Response, Herbicide mixture with Compound 1 (winter wheat [3]; [8]): 0
- Observed Response, Herbicide alone (winter wheat [3]; herbicide 10 g ai/ha): 17
- Observed Response, Herbicide mixture with Compound 1 (winter wheat [3]; [9]): 0
- Observed Response, Herbicide alone (winter wheat [3]; herbicide 20 g ai/ha): 18
- Observed Response, Herbicide mixture with Compound 1 (spring wheat; [8]): 3
- Observed Response, Herbicide alone (spring wheat; herbicide 10 g ai/ha): 18
- Observed Response, Herbicide mixture with Compound 1 (spring wheat; [9]): 0
- Observed Response, Herbicide alone (spring wheat; herbicide 20 g ai/ha): 22
- Observed Response, Herbicide mixture with Compound 1 (lambsquarters; [8]): 83
- Observed Response, Herbicide alone (lambsquarters; herbicide 10 g ai/ha): 78
- Observed Response, Herbicide mixture with Compound 1 (lambsquarters; [9]): 87
- Observed Response, Herbicide alone (lambsquarters; herbicide 20 g ai/ha): 87
- Observed Response, Herbicide mixture with Compound 1 (winter barley [4]; [10]): 40
- Observed Response, Herbicide alone (winter barley [4]; herbicide 32 g ai/ha): 75
- Observed Response, Herbicide mixture with Compound 1 (winter barley [4]; [11]): 35
- Observed Response, Herbicide alone (winter barley [4]; herbicide 64 g ai/ha): 90
- Observed Response, Herbicide mixture with Compound 1 (blackgrass [5]; [8]): 99
- Observed Response, Herbicide alone (blackgrass [5]; herbicide 10 g ai/ha): 98
- Observed Response, Herbicide mixture with Compound 1 (blackgrass [5]; [9]): 99
- Observed Response, Herbicide alone (blackgrass [5]; herbicide 20 g ai/ha): 99
- Observed Response, Herbicide mixture with Compound 1 (blackgrass [6]; [10]): 90
- Observed Response, Herbicide alone (blackgrass [6]; herbicide 32 g ai/ha): 95
- Observed Response, Herbicide mixture with Compound 1 (blackgrass [6]; [11]): 97
- Observed Response, Herbicide alone (blackgrass [6]; herbicide 64 g ai/ha): 95
- Observed Response, Herbicide mixture with Compound 1 (spring barley; [8]): 23
- Observed Response, Herbicide alone (spring barley; herbicide 10 g ai/ha): 47
- Observed Response, Herbicide mixture with Compound 1 (spring barley; [9]): 43
- Observed Response, Herbicide alone (spring barley; herbicide 20 g ai/ha): 53
- Observed Response, Herbicide mixture with Compound 1 (winter barley [7]; [8]): 12
- Observed Response, Herbicide alone (winter barley [7]; herbicide 10 g ai/ha): 42
- Observed Response, Herbicide mixture with Compound 1 (winter barley [7]; [9]): 27
- Observed Response, Herbicide alone (winter barley [7]; herbicide 20 g ai/ha): 42

Compound: COC(=O)c1c(Cl)nn(C)c1S(=O)(=O)NC(=O)Nc1nc(OC)cc(OC)n1 [Halosulfuron-methyl, halosulfuron-methyl]
- Observed Response, Herbicide mixture with Compound 1 [1, 12]: 10
- Observed Response, Herbicide alone ([1]; herbicide 17.5 g ai/ha): 37

Compound: CC(C)C1(C)N=C(c2nc3ccccc3cc2C(=O)O)NC1=O (centres unmarked) [Imazaquin, imazaquin]
- Observed Response, Herbicide mixture with Compound 1 [1, 12]: 100
- Observed Response, Herbicide alone ([1]; herbicide 17.5 g ai/ha): 100

Compound: COC(=O)c1ccc(I)cc1S(=O)(=O)NC(=O)Nc1nc(C)nc(OC)n1 [Iodosulfuron-methyl, iodosulfuron-methyl]
- Observed Response, Herbicide mixture with Compound 1 [1, 12]: 57
- Observed Response, Herbicide alone ([1]; herbicide 17.5 g ai/ha): 100

Compound: COC(=O)c1ccc(CNS(C)(=O)=O)cc1S(=O)(=O)NC(=O)Nc1nc(OC)cc(OC)n1 [Mesosulfuron-methyl, mesosulfuron-methyl]
- Observed Response, Herbicide mixture with Compound 1 [1, 12]: 100
- Observed Response, Herbicide alone ([1]; herbicide 17.5 g ai/ha): 100

Compound: CCCOc1nn(C(=O)[N-]S(=O)(=O)c2ccccc2C(=O)OC)c(=O)n1C.[Na+] [Propoxycarbazone-sodium, propoxycarbazone]
- Observed Response, Herbicide mixture with Compound 1 [1, 13]: 100
- Observed Response, Herbicide alone ([1]; herbicide 35 g ai/ha): 100

Compound: COC(=O)c1cccc(C)c1S(=O)(=O)NC(=O)Nc1nc(OCC(F)(F)F)nc(N(C)C)n1 [Triflusulfuron-methyl, triflusulfuron-methyl]
- Observed Response, Herbicide mixture with Compound 1 [1, 13]: 100
- Observed Response, Herbicide alone ([1]; herbicide 35 g ai/ha): 100

Compound: Imazamethabenz
- Observed Response, Herbicide mixture with Compound 1 [1, 12]: 100
- Observed Response, Herbicide alone ([1]; herbicide 17.5 g ai/ha): 100
